Measured values reported in patent US6992079B2, “Substituted 11-phenyl-dibenzazepine compounds useful for the treatment or prevention of diseases characterized by abnormal cell proliferation” (President Fellows of Harvard College, priority 1997, dated 2006).
Like-named read-outs stand apart in the source and are kept apart here.

Assays:
SK-OV-3 = experiment: In-Vitro Testing SRB panel: Ovarian Cancer; format: cell-based; conditions: SK-OV-3, 48 h
[1] = tested on: panel of human cancer cells; experiment: In vitro screening, SRB, panel of 60 human cancer cell lines; format: cell-based
CCRF-CEM = experiment: In-Vitro Testing SRB panel: Leukemia; format: cell-based; conditions: 48 h
[2] = tested on: SU.86.86 pancreatic adenocarcinoma; experiment: Mouse xenograft tumor growth; format: in vivo, nude mice; conditions: SU.86.86 pancreatic adenocarcinoma mouse xenograft
SW-620 = experiment: In-Vitro Testing SRB panel: Colon Cancer; format: cell-based; conditions: SW-620, 48 h
MOLT-4 = experiment: In-Vitro Testing SRB panel: Leukemia; format: cell-based; conditions: MOLT-4, 48 h
MC-F7 = experiment: In-Vitro Testing SRB panel: Breast Cancer; format: cell-based
HCT-15 = experiment: In-Vitro Testing SRB panel: Colon Cancer; format: cell-based; conditions: HCT-15, 48 h
A549/ATCC = format: cell-based
CARI-1 = experiment: In-Vitro Testing SRB panel: Renal Cancer; format: cell-based; conditions: 48 h
SR = experiment: In-Vitro Testing SRB panel: Leukemia; format: cell-based; conditions: 48 h
SK-MEL-2B = experiment: In-Vitro Testing SRB panel: Melanoma; format: cell-based; conditions: 48 h
[3] = In-Vitro Testing SRB panel: Renal Cancer; format: cell-based; conditions: 48 h
NCI-H460 = format: cell-based; conditions: NCI-H460, 48 h
OVCAR-8 = experiment: In-Vitro Testing SRB panel: Ovarian Cancer; format: cell-based; conditions: OVCAR-8, 48 h
BT-549 = experiment: In-Vitro Testing SRB panel: Breast Cancer; format: cell-based; conditions: BT-549, 48 h
MDA-N = experiment: In-Vitro Testing SRB panel: Breast Cancer; format: cell-based; conditions: 48 h
UACC-62 = experiment: In-Vitro Testing SRB panel: Melanoma; format: cell-based; conditions: UACC-62, 48 h
SK-MEL-2 = experiment: In-Vitro Testing SRB panel: Melanoma; format: cell-based; conditions: SK-MEL-2, 48 h
[4] = Homo sapiens, read-out: LC50 (the source's name)

O=C(c1ccc([N+](=O)[O-])cc1)N1Cc2ccccc2C(c2ccccc2Cl)c2ccccc21 (centres unmarked) [Compound 28, N-(4′-Nitrobenzoyl)-11-(2′-chlorophenyl)-5,6-dihydro-11H-dibenz[b,e]azepine]
GI50 (SK-OV-3; Homo sapiens): 8.31 µM | CC50 (SK-OV-3; [4]): > 100 µM | TGI (SK-OV-3): >1.00E−04 Molar | Percent Growth (SK-OV-3; log10 conc −4.0 Molar): 36% | Percent Growth (SK-OV-3; log10 conc −5.0 Molar): 47% | Percent Growth (SK-OV-3; log10 conc −6.0 Molar): 79% | Percent Growth (SK-OV-3; log10 conc −7.0 Molar): 97% | Percent Growth (SK-OV-3; log10 conc −8.0 Molar): 97% | activity against the human cell panel [1]: exhibited activity against the human cell panel | TGI (CCRF-CEM): 2.99E−06 Molar | GI50 (CCRF-CEM; Homo sapiens): 0.0909 µM | CC50 (CCRF-CEM; [4]): > 100 µM | Percent Growth (CCRF-CEM; log10 conc −4.0 Molar): −3% | Percent Growth (CCRF-CEM; log10 conc −5.0 Molar): −11% | Percent Growth (CCRF-CEM; log10 conc −6.0 Molar): 10% | Percent Growth (CCRF-CEM; log10 conc −7.0 Molar): 49% | Percent Growth (CCRF-CEM; log10 conc −8.0 Molar): 66% | tumor growth [2]: significantly inhibited tumor growth | GI50 (SW-620; Homo sapiens): 7.13 µM | CC50 (SW-620; [4]): > 100 µM | TGI (SW-620): >1.00E−04 Molar | Percent Growth (SW-620; log10 conc −4.0 Molar): 42% | Percent Growth (SW-620; log10 conc −5.0 Molar): 47% | Percent Growth (SW-620; log10 conc −6.0 Molar): 65% | Percent Growth (SW-620; log10 conc −7.0 Molar): 94% | Percent Growth (SW-620; log10 conc −8.0 Molar): 112% | GI50 (MOLT-4; Homo sapiens): 0.7 µM | CC50 (MOLT-4; [4]): > 100 µM | TGI (MOLT-4): >1.00E−04 Molar | Percent Growth (MOLT-4; log10 conc −4.0 Molar): 24% | Percent Growth (MOLT-4; log10 conc −5.0 Molar): 24% | Percent Growth (MOLT-4; log10 conc −6.0 Molar): 44% | Percent Growth (MOLT-4; log10 conc −7.0 Molar): 82% | Percent Growth (MOLT-4; log10 conc −8.0 Molar): 109% | GI50 (MC-F7; Homo sapiens, MCF7, 48 h): 0.872 µM | CC50 (MC-F7; Homo sapiens, MCF7, MC-F7, 48 h, read-out: LC50 (the source's name)): > 100 µM | TGI (MC-F7; MC-F7, 48 h): >1.00E−04 Molar | Percent Growth (MC-F7; MC-F7, log10 conc −4.0 Molar, 48 h): 8% | Percent Growth (MC-F7; MC-F7, log10 conc −5.0 Molar, 48 h): 21% | Percent Growth (MC-F7; MC-F7, log10 conc −6.0 Molar, 48 h): 48% | Percent Growth (MC-F7; MC-F7, log10 conc −7.0 Molar, 48 h): 88% | Percent Growth (MC-F7; MC-F7, log10 conc −8.0 Molar, 48 h): 97% | TGI (HCT-15): >1.00E−04 Molar | Percent Growth (HCT-15; log10 conc −4.0 Molar): 29% | Percent Growth (HCT-15; log10 conc −5.0 Molar): 28% | Percent Growth (HCT-15; log10 conc −6.0 Molar): 40% | Percent Growth (HCT-15; log10 conc −7.0 Molar): 86% | Percent Growth (HCT-15; log10 conc −8.0 Molar): 99% | GI50 (HCT-15; Homo sapiens): 0.608 µM | CC50 (HCT-15; [4]): > 100 µM | TGI (A549/ATCC; A549/ATCC, 48 h): >1.00E−04 Molar | Percent Growth (A549/ATCC; A549/ATCC, log10 conc −4.0 Molar, 48 h): 14% | Percent Growth (A549/ATCC; A549/ATCC, log10 conc −5.0 Molar, 48 h): 20% | Percent Growth (A549/ATCC; A549/ATCC, log10 conc −6.0 Molar, 48 h): 49% | Percent Growth (A549/ATCC; A549/ATCC, log10 conc −7.0 Molar, 48 h): 92% | Percent Growth (A549/ATCC; A549/ATCC, log10 conc −8.0 Molar, 48 h): 97% | GI50 (A549/ATCC; Homo sapiens, A549, 48 h): 0.937 µM | CC50 (A549/ATCC; Homo sapiens, A549/ATCC, 48 h, read-out: LC50 (the source's name)): > 100 µM | TGI (CARI-1; CARI-1): >1.00E−04 Molar | Percent Growth (CARI-1; CARI-1, log10 conc −4.0 Molar): 22% | Percent Growth (CARI-1; CARI-1, log10 conc −5.0 Molar): 40% | Percent Growth (CARI-1; CARI-1, log10 conc −6.0 Molar): 61% | Percent Growth (CARI-1; CARI-1, log10 conc −7.0 Molar): 91% | Percent Growth (CARI-1; CARI-1, log10 conc −8.0 Molar): 94% | GI50 (CARI-1; Homo sapiens): 3.26 µM | CC50 (CARI-1; Homo sapiens, CARI-1, read-out: LC50 (the source's name)): > 100 µM | TGI (SR): >1.00E−04 Molar | GI50 (SR; Homo sapiens): 0.643 µM | CC50 (SR; [4]): > 100 µM | Percent Growth (SR; log10 conc −4.0 Molar): 21% | Percent Growth (SR; log10 conc −5.0 Molar): 30% | Percent Growth (SR; log10 conc −6.0 Molar): 42% | Percent Growth (SR; log10 conc −7.0 Molar): 85% | Percent Growth (SR; log10 conc −8.0 Molar): 76% | GI50 (SK-MEL-2B; Homo sapiens): > 100 µM | CC50 (SK-MEL-2B; Homo sapiens, SK-MEL-2B, read-out: LC50 (the source's name)): > 100 µM | TGI (SK-MEL-2B; SK-MEL-2B): >1.00E−04 Molar | Percent Growth (SK-MEL-2B; SK-MEL-2B, log10 conc −4.0 Molar): 50% | Percent Growth (SK-MEL-2B; SK-MEL-2B, log10 conc −5.0 Molar): 56% | Percent Growth (SK-MEL-2B; SK-MEL-2B, log10 conc −6.0 Molar): 72% | Percent Growth (SK-MEL-2B; SK-MEL-2B, log10 conc −7.0 Molar): 97% | Percent Growth (SK-MEL-2B; SK-MEL-2B, log10 conc −8.0 Molar): 39% | TGI ([3]; DO-31): >1.00E−04 Molar | Percent Growth ([3]; DO-31, log10 conc −4.0 Molar): 14% | Percent Growth ([3]; DO-31, log10 conc −5.0 Molar): 28% | Percent Growth ([3]; DO-31, log10 conc −6.0 Molar): 56% | Percent Growth ([3]; DO-31, log10 conc −7.0 Molar): 111% | Percent Growth ([3]; DO-31, log10 conc −8.0 Molar): 105% | GI50 ([3]; Homo sapiens): 1.69 µM | CC50 ([3]; Homo sapiens, DO-31, read-out: LC50 (the source's name)): > 100 µM | GI50 (NCI-H460; Homo sapiens): 3.65 µM | CC50 (NCI-H460; [4]): > 100 µM | TGI (NCI-H460): >1.00E−04 Molar | Percent Growth (NCI-H460; log10 conc −4.0 Molar): 15% | Percent Growth (NCI-H460; log10 conc −5.0 Molar): 12% | Percent Growth (NCI-H460; log10 conc −6.0 Molar): 18% | Percent Growth (NCI-H460; log10 conc −7.0 Molar): 92% | Percent Growth (NCI-H460; log10 conc −8.0 Molar): 97% | GI50 (OVCAR-8; Homo sapiens): 2.86 µM | CC50 (OVCAR-8; [4]): > 100 µM | TGI (OVCAR-8): >1.00E−04 Molar | Percent Growth (OVCAR-8; log10 conc −4.0 Molar): 28% | Percent Growth (OVCAR-8; log10 conc −5.0 Molar): 33% | Percent Growth (OVCAR-8; log10 conc −6.0 Molar): 64% | Percent Growth (OVCAR-8; log10 conc −7.0 Molar): 102% | Percent Growth (OVCAR-8; log10 conc −8.0 Molar): 105% | TGI (BT-549): >1.00E−04 Molar | Percent Growth (BT-549; log10 conc −4.0 Molar): 34% | Percent Growth (BT-549; log10 conc −5.0 Molar): 46% | Percent Growth (BT-549; log10 conc −6.0 Molar): 70% | Percent Growth (BT-549; log10 conc −7.0 Molar): 87% | Percent Growth (BT-549; log10 conc −8.0 Molar): 98% | GI50 (BT-549; Homo sapiens): 6.7 µM | CC50 (BT-549; [4]): > 100 µM | TGI (MDA-N): >1.00E−04 Molar | GI50 (MDA-N; Homo sapiens): 1.17 µM | CC50 (MDA-N; [4]): > 100 µM | Percent Growth (MDA-N; log10 conc −4.0 Molar): 7% | Percent Growth (MDA-N; log10 conc −5.0 Molar): 23% | Percent Growth (MDA-N; log10 conc −6.0 Molar): 52% | Percent Growth (MDA-N; log10 conc −7.0 Molar): 94% | Percent Growth (MDA-N; log10 conc −8.0 Molar): 99% | GI50 (UACC-62; Homo sapiens): 0.363 µM | CC50 (UACC-62; [4]): > 100 µM | Percent Growth (UACC-62; log10 conc −4.0 Molar): 0% | Percent Growth (UACC-62; log10 conc −5.0 Molar): 22% | Percent Growth (UACC-62; log10 conc −6.0 Molar): 45% | Percent Growth (UACC-62; log10 conc −7.0 Molar): 57% | Percent Growth (UACC-62; log10 conc −8.0 Molar): 82% | GI50 (SK-MEL-2; Homo sapiens): 1.76 µM | CC50 (SK-MEL-2; [4]): > 100 µM | TGI (SK-MEL-2): 1.10E−05 Molar | Percent Growth (SK-MEL-2; log10 conc −4.0 Molar): −31% | Percent Growth (SK-MEL-2; log10 conc −5.0 Molar): 1% | Percent Growth (SK-MEL-2; log10 conc −6.0 Molar): 66% | Percent Growth (SK-MEL-2; log10 conc −7.0 Molar): 95% | Percent Growth (SK-MEL-2; log10 conc −8.0 Molar): 107%
